Here are results for one compound from patent US6902724B1, “Enhanced efficacy basic aluminum halides, antiperspirant active compositions and methods for making” (Reheis, Inc., priority 2004, dated 2005).

Assay [1] is described as follows: In vitro model: pore blocking of Millipore filter (IVMI). Particulars: 0.185 molar aluminum solution; pH 10 buffer; 0.25% NaCl; 100 mm H2O; inverse relation to % sweat reduction. An excerpt:
The apparatus and test protocol are based on method described by Reller and Leudders (Reller, H. H. and Leudders, W. L., Advances in Modern Toxicology, 4: 1-59 (1977)) and EP 0586235 B1 disclosures of which are incorporated herein by reference. Reller and Leudders described a millipore system which they used to measure the obstruction caused by the neutralization of various metal salts. They then compared their in vitro findings with those obtained for antiperspirant efficacy of the salts which had been tested in humans and found a reasonable correlation. A modified version of the apparatus and protocol described in […] were developed and used to determine the relative in vitro efficacy of antiperspirant actives. The system is shown schematically in FIG. 2 of the accompanying drawings. The system consists of four major components, namely the pressure control unit 1, the sweat reservoir II, the cell III and the measuring system IV.
The pressure control unit I consisted of a standard nitrogen gas cylinder 1 equipped with a pressure regulator 2 and connected to an on/off isolation valve 3 and pressure relief safety valve 4. The on/off valve 3 isolates the nitrogen cylinder 1 from the rest of the system. The majority of connections were made using ¼″ stainless steel tubing and swage lock fittings. […]

The conditions of assay [2]: in vivo; cited from earlier work.

In the case of `[Cl][Al]([Cl])[Cl]` [aluminum chloride solution, aluminum chloride], the “IVMI (In Vitro Model Index)” value in assay [1] is “lowest”. In addition, the “antiperspirancy among the various aluminum salts” value in assay [2] is “highest antiperspirancy”.
